Laboratory results published in paper PMC5507339, “Small-molecule inhibition of pyruvate phosphate dikinase targeting the nucleotide binding site” (PLoS ONE, 2017).
Entries after “also recorded” stand apart in the source; their conditions may differ.

Tests used:
[1] = target: T1, PPDK from Flaveria trinervia (Flaveria trinervia, UniProt P22221); test: biochemical; details: for IC50: 0.2 μM PPDK, inhibitor 0-200 μM, mean ± standard error; for Residual PPDK activity relative to DMSO-treated controls: inhibitor 100 μM
T1 construct: His10 (N); TEV cleavage site (N); made in house; host or cells: E. coli BL21 (DE3)
T1 sequence (P22221 80-953): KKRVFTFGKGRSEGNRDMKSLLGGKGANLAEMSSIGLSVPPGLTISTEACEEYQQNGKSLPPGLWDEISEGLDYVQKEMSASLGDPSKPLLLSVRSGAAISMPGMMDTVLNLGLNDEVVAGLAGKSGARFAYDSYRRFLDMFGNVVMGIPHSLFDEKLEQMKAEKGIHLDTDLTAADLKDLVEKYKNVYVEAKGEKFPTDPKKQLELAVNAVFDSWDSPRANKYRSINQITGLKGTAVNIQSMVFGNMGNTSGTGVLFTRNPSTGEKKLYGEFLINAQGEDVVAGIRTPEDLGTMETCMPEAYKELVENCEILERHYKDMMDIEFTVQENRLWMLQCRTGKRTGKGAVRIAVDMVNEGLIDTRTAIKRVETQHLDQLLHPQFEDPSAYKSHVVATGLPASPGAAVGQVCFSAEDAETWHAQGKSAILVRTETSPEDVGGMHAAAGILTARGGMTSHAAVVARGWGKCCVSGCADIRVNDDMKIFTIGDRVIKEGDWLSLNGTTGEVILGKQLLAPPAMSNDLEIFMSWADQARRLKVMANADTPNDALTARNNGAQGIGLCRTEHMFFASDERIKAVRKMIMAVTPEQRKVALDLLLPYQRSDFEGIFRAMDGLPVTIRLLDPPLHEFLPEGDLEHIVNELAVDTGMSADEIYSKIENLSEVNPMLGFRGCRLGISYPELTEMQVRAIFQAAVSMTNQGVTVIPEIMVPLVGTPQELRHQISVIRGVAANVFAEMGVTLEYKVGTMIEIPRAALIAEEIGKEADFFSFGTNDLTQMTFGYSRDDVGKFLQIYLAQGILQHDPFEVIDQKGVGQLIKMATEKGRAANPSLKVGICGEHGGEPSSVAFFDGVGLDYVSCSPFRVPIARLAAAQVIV
Experimental: Heterologous gene expression and purification of the recombinant PPDK were performed as described in [11]. A modified pET-16b vector (Merck, Darmstadt, GER) which contained an N-terminal histidine10 tag, followed by a TEV cleavage site and the sequence encoding for PPDK from Flaveria trinervia (EMBL X75516) was used for heterologous expression in E. coli strain BL21 (DE3). Transformed cells were grown to an OD600 of 0.6–0.8 in 2YT medium at 30°C before expression was induced by the addition of 0.1 mM isopropyl-β-D-1-thiogalactopyranoside. Cells were harvested after over night incubation at 30°C and 180 rpm. Preceding purification, cells were resuspended in lysis buffer (50 mM Tris/HCl pH 7.5, 300 mM NaCl, 10 mM imidazole, 10 mM MgSO4, 10% (w/v) glycerol, 5 mM DTT, 0.002% (w/v) phenylmethanesulfonylfluoride) and disrupted using a cell disruptor (Constant Systems). PPDK was purified using a nickel affinity chromatography column (GE Healthcare, Munich, GER). Purification (50 mM Tris/HCl pH 7.5, 300 mM NaCl, 10 mM MgSO4, 10% (w/v) glycerol, 5 mM DTT) and elution buffer (50 mM Tris/HCl pH 7.5, 300 mM NaCl, 500 mM imidazole, 10 mM MgSO4, 10% (w/v) glycerol, 5 mM DTT) were used for further purification steps. PPDK bound to the column was washed in steps of 50 mM, 150 mM and 200 mM imidazole, before final elution with 500 mM imidazole. Protein-rich fractions were pooled and a PD-10 desalting column (GE Healthcare) was used to change the elution buffer for assay buffer (100 mM Tris/HCl pH 8.0, 10 mM MgCl2, 2.5 mM KH2PO4, 6 mM glucose-6-phosphate, 5 mM NaHCO3, 0.1 mM EDTA, 5 mM DTT). The buffer-exchanged sample was eventually concentrated by ultrafiltration (30 kDa cutoff, Millipore).
Activity of purified PPDK was measured according to Salahas et al., Doyle et al. in a 96 well microtiter plate layout by a coupled spectrophotometrical assay. In this assay, the carboxylation of PEP by PEPC is linked to the oxidation of NADH by NADH-malate dehydrogenase (NADH-MDH). PEP is formed by PPDK via ATP-driven phosphorylation of pyruvate. Eventually, the consumption of one molecule NADH is equivalent to the formation of one molecule of PEP by PPDK. The assay was performed in a sample volume of 100 μL at 30°C in a M200 plate reader (Tecan, Crailsheim, GER). 0.2 μM PPDK were mixed with 0.2 mM NADH, 2.5 mM sodium pyruvate, 0.8 U bacterial PEPC (Sigma-Aldrich, Darmstadt, GER) and 2 U NADH-MDH (Sigma-Aldrich). The reaction mixture was filled up to a total volume of 100 μL per sample with assay buffer (100 mM Tris/HCl pH 8.0, 10 mM MgCl2, 2.5 mM KH2PO4, 6 mM glucose-6-phosphate, 5 mM NaHCO3, 0.1 mM EDTA, 5 mM DTT). PPDK was pre-incubated for 20 min at 30°C to ensure full activity. Inhibitors were dissolved in water free dimethyl sulfoxide (DMSO) with a final concentration of 10 mM and were added prior to adjusting the final sample volume. To account for possible effects of DMSO on PPDK activity, the solvent was added to the controls in an amount equal to the largest DMSO concentration used in the experiments. Incubation time of the final sample mixture including inhibitors and PPDK was 15 min. Initial comparative screening was perfomed using 100 μM of each compound. The absorbance at 340 nm was recorded for 30 s with an interval of 300 ms. […] A four-parameter log-logistic dose-response curve was then globally fitted to the individual replicates using the R software collection and the R package “drc” [28] as proposed by assessment of Akaike’s information criterion (AIC). PPDK was incubated for 10 min with the inhibitors before each measurement. To exclude PEPC or NADH-MDH inhibition by the selected compounds, the initial screening assay was repeated in triplicates for those compounds without adding PPDK and starting the reaction by injection of PEP instead of ATP.

[2] = target: receptor tyrosine kinases; parameters: method as in PMID 16648571; details: ATP-competitive; cited from earlier work
Zea mays leaf slices = test: Inhibition of oxygen evolution during C4 photosynthesis, leaf slices, Clark-type O2 electrode; assay type: cell-based; details: for inhibition at 20 µg/mL: 20 μg mL^−1; for inhibition at 40 µg/mL: 40 μg mL^−1
Experimental: Oxygen (O2) evolution, driven by the C4 acid cycle, was measured according to refs [21, 22, 31]. The reaction chamber of a Clark-type O2 electrode (Hansatech, Norfolk, UK) was filled with 1 mL of degassed buffer containing 0.33 M sorbitol, 2.5 mM NaH2PO4, 2.5 mM MgCl2, 25 mM HEPES/KOH pH 7.5, 50 μM MnCl2 and 2.5 mM dithiothreitol (DTT). An area sized approx. 1 cm^2 was cut from a mature leaf of the C4 model plant Zea mays and processed into slices of ∼ 1 mm width. The leaf slices were added to the electrode chamber and the recording of O2 evolution was started while keeping the chamber in the dark. The O2 evolution rate recorded in this period was later substracted from the subsequently recorded rates to account for the electrode drift. Once the system had stabilized, the chamber was illuminated using a Schott KL 1500 electronic light source. Again, the system was given time to stabilize before the C4-driven O2 evolution was initiated by the addition of first NaHCO3 and then pyruvate in final concentrations of 4 mM each. […] All measurements were done in triplicates.
Directly following the measurement, leaf slices were removed from the chamber and transferred to 1 mL of 80% acetone (v/v) for chlorophyll extraction. The samples were kept at 4°C in the dark for 48 h.

Zea mays PPDK = system: Zea mays PPDK; parameters: method as in earlier work; details: PPDK from leaf extracts; ref 21 (Haines et al.); cited from earlier work

Compound	IC50 [1] [µM]	Residual PPDK activity relative to DMSO-treated controls [1]	inhibition at 20 µg/mL (Zea mays leaf slices) [%]	inhibition at 40 µg/mL (Zea mays leaf slices) [%]	other results
Cc1ccc(F)c(NC(=O)Nc2ccc(-c3cccc4[nH]nc(N)c34)cc2)c1 [ABT-869]	11.2 ± 0.24	below 30%	–	–	IC50 [2]: 0.004 µM
O=C1NC(=O)C(c2c[nH]c3ccccc23)=C1c1c[nH]c2ccccc12 [BIM IV, bisindolylmaleimide IV]	0.76 ± 0.13	–	20	36	–
CN(C)CC1CCn2c(c(C3=C(c4cn(C)c5ccccc45)C(=O)NC3=O)c3ccccc32)C1 (stereo not shown) [BIM XI, bisindolylmaleimide XI]	–	–	–	–	Effect on PPDK activity ([1]; initial screening): did not show any effect; also recorded: no effect
COc1ccc2c(c1)c(C1=C(c3c[nH]c4ccccc34)C(=O)NC1=O)cn2CCCN(C)C [Go6983]	1.5 ± 0.6	–	19	29	–
CN1C(=O)C(c2c[nH]c3ccccc23)=C(c2c[nH]c3ccccc23)C1=O [bisindolylmaleimide V]	–	15%	–	–	–
C=C1CCC[C@H]2[C@](C)(CC3=C(O)C(=O)C=C(OC)C3=O)[C@@H](C)CC[C@]12C [ilimaquinone]	740 ± 566	–	–	–	IC50 (Zea mays PPDK): 292 ± 23 µM
